System: emerging SPEM cells at the bases of fundic glands
Assay: Gene microarray analysis of laser-capture microdissected chief cells and emerging SPEM cells (Affymetrix Mouse 430 2.0)
Assay type: in vivo, gastrin-deficient mice
Experimental: See Nomura, S., Yamaguchi, H., Wang, T. C., Lee, J. R., and Goldenring, J. R. 2004. Alterations in gastric mucosal lineages induced by acute oxyntic atrophy in wild type and gastrin deficient mice. Amer. J. Physiol. 288:G362-G375. […] To examine this hypothesis more directly, chief cells were microdissected from the very bases of untreated gastrin knockout mice as well as SPEM cells at the base of fundic glands after 1 and 3 days of treatment with DMP-777. Total RNA was prepared from 10,000 cells isolated from 4 different mice in each group. For each of the 12 samples, linear amplification was performed and Affymetrix Mouse 2.0 gene microarrays were probed. […] Second, 30 genes were identified as being involved in G1-S interface transition, including 5 MCM proteins, BRCA1, RIS2, RAD51, TACC3 and ligase1. Immunocytochemistry was used to confirm the upregulation of MCM3 as well as TACC3 in SPEM cells located at the base of fundic glands in mice treated for 1 or 3 days with DMP-777. All of these changes are consistent with alterations moving towards a proliferative phenotype. […] See Nomura, S., Yamaguchi, H., Wang, T. C., Lee, J. R., and Goldenring, J. R. 2004. Alterations in gastric mucosal lineages induced by acute oxyntic atrophy in wild type and gastrin deficient mice. Amer. J. Physiol. 288:G362-G375. Thus the up-regulation of proteins involved in the G1/S interface is also consistent with transdifferentiation of chief cells into SPEM, since such changes would require a global transcriptome, alterations that would require unwinding of DNA and changes in gene activation including alteration in DNA methylation.
Gastrin-deficient mice were constructed by targeted disruption of the gastrin gene and were maintained on a C57BL/6 background (Nomura S, Yamaguchi H, Wang T C, Lee J R, Goldenring J R. Alterations in gastric mucosal lineages induced by acute oxyntic atrophy in wild type and gastrin deficient mice. Amer.J.Physiol. 2004; In Press). Mice were treated for 1 or 3 days with oral gavage administration of DMP-777 (a gift of DuPont Pharmaceuticals), formulated in 0.5% methylcellulose (administered orally as a gavage once daily at 350 mg/kg/day). Untreated mice were utilized as controls. Mice were sacrificed and their stomachs were excised and opened along the greater curvature and processed for frozen sections for laser capture microdissection. From the untreated Gastrin-deficient mice, chief cells were microdissected from the bases of gastric glands. The emerging SPEM cells were microdissected from the bases of fundic glands of DMP-777-treated Gastrin-deficient mice after 1 or 3 days of oral drug administration. Cell collections (10,000 cells) and extractions of total RNA were performed as previously described (Nomura S, Baxter S, Yamaguchi T, Leys C, Vartapetian A B, Fox J G, Lee J R, Wang T C, Goldenring J R. Relationship of spasmolytic polypeptide expressing metaplasia (SPEM) to pre-neoplasia in H. felis-infected mice. Gastroenterology 2004; 127:582-594).
Total RNA from microdissected cells were reverse transcribed and amplified through two rounds of linear amplification using a Nugen Ovation kit to amplify and label 10-20 ng of RNA. The resulting single-strand cDNA product was purified by binding to and elution from a Qiagen QIAQUICK® column. The cDNA product was then quantitated and 2.2 μg of the fragmented, labeled product was hybridized to Affymetrix Mouse 430 2.0 microarrays overnight, with staining and scanning performed the next day. Gene expression was analyzed among microdissected cells from 4 untreated gastrin-deficient mice 4 mice treated with DMP-777 for one day and 4 mice treated with DMP-777 for three days. The raw gene expression data (.cel files) were converted to expression values using the Affy function in R (see the Bioconductor website). […]

[1] = gastrin-deficient mice, 350 mg/kg/day oral, 1 day, microdissected SPEM cells vs untreated chief cells
[2] = gastrin-deficient mice, 350 mg/kg/day oral, 1 day, microdissected SPEM cells vs untreated chief cells, first line for this gene
[3] = gastrin-deficient mice, 350 mg/kg/day oral, 1 day, microdissected SPEM cells vs untreated chief cells, second line for this gene
[4] = gastrin-deficient mice, 350 mg/kg/day oral, 3 days, microdissected SPEM cells vs untreated chief cells
[5] = gastrin-deficient mice, 350 mg/kg/day oral, 3 days, microdissected SPEM cells vs untreated chief cells, first line for this gene
[6] = gastrin-deficient mice, 350 mg/kg/day oral, 3 days, microdissected SPEM cells vs untreated chief cells, second line for this gene

In the case of `CCC[C@@H](NC(=O)N1C(=O)C(CC)(CC)[C@@H]1Oc1ccc(C(=O)N2CCN(C)CC2)cc1)c1ccc2c(c1)OCO2` [DMP-777], the “Top2a transcript, 1 DAY DMP-777 vs CONTROL” value [1] is reported as 7.3, the “Trip13 transcript, 1 DAY DMP-777 vs CONTROL” value [1] is reported as 10.3 and the “Uhrf1 transcript, 1 DAY DMP-777 vs CONTROL” value [1] is reported as 35.3. The “WDNM1 transcript, 1 DAY DMP-777 vs CONTROL” value [1] was 5.2, the “Wfdc2 transcript, 1 DAY DMP-777 vs CONTROL” value [1] was 8.9 and the “Mcm5 * transcript, 1 DAY DMP-777 vs CONTROL” value [2] was 18.1. For the same molecule, the “Mcm10 * transcript, 1 DAY DMP-777 vs CONTROL” value [2] was 12.2, the “Prc1 transcript, 1 DAY DMP-777 vs CONTROL” value [2] was 7.5 and the “Rad51ap1 * transcript, 1 DAY DMP-777 vs CONTROL” value [2] was 12.9. The “Ris2* transcript, 1 DAY DMP-777 vs CONTROL” value [2] was 21.5, the “Mcm5 * transcript, 1 DAY DMP-777 vs CONTROL” value [3] was 13.9 and the “Mcm10 * transcript, 1 DAY DMP-777 vs CONTROL” value [3] was 6.7. The “Prc1 transcript, 1 DAY DMP-777 vs CONTROL” value [3] was 7.0, the “Rad51ap1 * transcript, 1 DAY DMP-777 vs CONTROL” value [3] was 8.7 and the “Ris2* transcript, 1 DAY DMP-777 vs CONTROL” value [3] was 7.3. The “5ssca1 transcript, 3 DAYS DMP-777 vs CONTROL” value [4] was 12.3, the “Atf3 transcript, 3 DAYS DMP-777 vs CONTROL” value [4] was 10.1 and the “Cdc2a transcript, 3 DAYS DMP-777 vs CONTROL” value [4] was 7.0. The “Cdca1 transcript, 3 DAYS DMP-777 vs CONTROL” value [4] was 8.1, the “Cdca5 transcript, 3 DAYS DMP-777 vs CONTROL” value [4] was 36.1 and the “CdcaS transcript, 3 DAYS DMP-777 vs CONTROL” value [4] was 8.7. The “Cenph transcript, 3 DAYS DMP-777 vs CONTROL” value [4] was 10.7, the “Clspn transcript, 3 DAYS DMP-777 vs CONTROL” value [4] was 8.5 and the “Crip1 transcript, 3 DAYS DMP-777 vs CONTROL” value [4] was 42.6. The “Dcc1 transcript, 3 DAYS DMP-777 vs CONTROL” value [4] was 10.0, the “Ereg transcript, 3 DAYS DMP-777 vs CONTROL” value [4] was 28.9 and the “ExoscB transcript, 3 DAYS DMP-777 vs CONTROL” value [4] was 6.7. The “Fignl1 transcript, 3 DAYS DMP-777 vs CONTROL” value [4] was 6.6, the “Gadd45b transcript, 3 DAYS DMP-777 vs CONTROL” value [4] was 5.0 and the “Il1m transcript, 3 DAYS DMP-777 vs CONTROL” value [4] was 18.5. The “Lgals3 transcript, 3 DAYS DMP-777 vs CONTROL” value [4] was 153.3, the “Lig1 transcript, 3 DAYS DMP-777 vs CONTROL” value [4] was 9.6 and the “Mcm6 transcript, 3 DAYS DMP-777 vs CONTROL” value [4] was 36.4. For the same molecule, the “Ncapg transcript, 3 DAYS DMP-777 vs CONTROL” value [4] was 3.2, the “Pole transcript, 3 DAYS DMP-777 vs CONTROL” value [4] was 11.3 and the “Rad51 transcript, 3 DAYS DMP-777 vs CONTROL” value [4] was 10.5. For the same molecule, the “Rad54b transcript, 3 DAYS DMP-777 vs CONTROL” value [4] was 6.6, the “Rfc3 transcript, 3 DAYS DMP-777 vs CONTROL” value [4] was 6.1 and the “Rfc4 transcript, 3 DAYS DMP-777 vs CONTROL” value [4] was 8.4. For the same molecule, the “Rrm1 transcript, 3 DAYS DMP-777 vs CONTROL” value [4] was 8.4, the “Tk1 transcript, 3 DAYS DMP-777 vs CONTROL” value [4] was 11.5 and the “Top2a transcript, 3 DAYS DMP-777 vs CONTROL” value [4] was 6.4. The “Trip13 transcript, 3 DAYS DMP-777 vs CONTROL” value [4] was 8.6, the “Uhrf1 transcript, 3 DAYS DMP-777 vs CONTROL” value [4] was 8.8 and the “WDNM1 transcript, 3 DAYS DMP-777 vs CONTROL” value [4] was 345.9. The “Wfdc2 transcript, 3 DAYS DMP-777 vs CONTROL” value [4] was 67.5, the “Mcm5 * transcript, 3 DAYS DMP-777 vs CONTROL” value [5] was 36.2 and the “Mcm10 * transcript, 3 DAYS DMP-777 vs CONTROL” value [5] was 38.3. The “Prc1 transcript, 3 DAYS DMP-777 vs CONTROL” value [5] was 6.9, the “Rad51ap1 * transcript, 3 DAYS DMP-777 vs CONTROL” value [5] was 6.1 and the “Ris2* transcript, 3 DAYS DMP-777 vs CONTROL” value [5] was 41.3. The “Mcm5 * transcript, 3 DAYS DMP-777 vs CONTROL” value [6] was 18.2, the “Mcm10 * transcript, 3 DAYS DMP-777 vs CONTROL” value [6] was 10.1 and the “Prc1 transcript, 3 DAYS DMP-777 vs CONTROL” value [6] was 7.4. For the same molecule, the “Rad51ap1 * transcript, 3 DAYS DMP-777 vs CONTROL” value [6] was 7.4, the “Ris2* transcript, 3 DAYS DMP-777 vs CONTROL” value [6] was 10.3 and the “increase in the expression of the HE4 gene” value (gene microarray, DMP-777-treated gastrin knockout mice vs untreated) was “greater than 16 fold”.
